Experimental data reported in US20180085359A1, “USE OF CHELATORS OF DIVALENT CATIONS TO PROMOTE NERVE REGENERATION” (CHILDREN'S MEDICAL CENTER CORPORATION, priority 2012, published 2018).
Values joined by “and” are separate entries in the source; they are usually repeats but may differ in a detail not shown here. Equal values may be shown once. “Also recorded” adds a separate entry of the source.

Assays:
[1] = test system: retinal ganglion cells (RGC); assay: RGC survival after optic nerve crush, βIII-tubulin-stained retinal whole mounts; assay type: in vivo, mouse; conditions: for RGC survival when chelator given only on Day 3: single administration 3 d after ONC
Method: (§1) Studies were performed at Children's Hospital Boston with the approval of the Institutional Animal Care and Use Committee. Experiments used male mice of the strain C57BL/6J (Jackson lab, Bar Harbor, Me.), at 8- to 10-week-old age.
(§2) Adult mice were anesthetized with a combination of ketamine and xylazine given intraperitoneally. A conjunctival incision was made over the dorsal aspect of one eye, which is then gently rotated downward in the orbit. The orbital muscles were slightly separated to expose the optic nerve at its exit from the globe, which were then crushed for 5 seconds with jewelers' forceps (Dumont number 5) near the back of the eye (within 0.5 mm). […] Same volume PBS was injected intravitreally in control group.
(§3) Mice were sacrificed with an overdose of anesthesia 14 d after optic nerve injury and were perfused with saline and 4% paraformaldehyde (PFA). […]. Optic nerves and eyes were dissected and postfixed in PFA. Nerves were impregnated with 30% sucrose, embedded in OCT Tissue Tek Medium (Sakura Finetek), frozen, cut in the longitudinal plane at 14 μm, and mounted on coated slides. Regenerating axons were visualized by staining with a sheep antibody to GAP-43 followed by a fluorescently labeled secondary antibody.
Images of eight preselected areas, 2 mm from the optic disc were captured under fluorescent illumination (400×; E800; Nikon). βIII-Tubulin-positive cells were counted using NIH ImageJ software (Wayne Rasband, National Institutes of Health, Bethesda, Md.). Cell densities were averaged across all eight areas.

[2] = test system: RGC axons in the optic nerve; assay: Optic nerve axon regeneration after optic nerve crush, GAP-43-positive axons distal to the crush site; assay type: in vivo, mouse; conditions: for effect on axon regeneration: intraocular injection, days 0 and 4 after ONC; for effect on axon regeneration / most effective concentration for axon regeneration: evaluated at 2 weeks; for maximally effective concentration for axon regeneration (unit not given): FIG. 4 / FIG. 7, 2 weeks after optic nerve injury, multiple injections; for added effect of pre-treatment (additional injection one day before ONC) on axon regeneration: compared with 2 post-injury injections; for most effective concentration for axon regeneration: intraocular injection immediately after optic nerve crush and 4 days later; for axon regeneration in combination with pten gene deletion: pten deleted in RGCs by AAV2-Cre, 2 weeks
Method: as §1, §2, §3
Axon growth was quantified by counting the number of GAP-43-positive axons extending 0.5, 1, 1.5 and 2 mm from the end of the crush site in at least eight sections per case. The cross-sectional width of the nerve was measured at the point at which the counts were taken and was used to calculate the number of axons per millimeter of nerve width. The number of axons per millimeter was then averaged over the number of sections. Σad, the total number of axons extending distance din a nerve having a radius of r, was estimated by summing over all sections having a thickness t (14 μm):
Σad=πr^2×[average axons/mm]/t

Bcl-xL = Bcl-xL immunostaining of retinal cross-sections 5 days after optic nerve crush; assay type: in vivo, mouse
Description: (§4) FIG. 6A-FIG. 6C show results from experiments that indicate Chelation of free Zn^2+ suppresses molecular changes that lead to RGC apoptosis. A) Cross-sections through the normal retina or 5 days after optic nerve crush, with or without treatment with the Zn^2+ chelator TPEN. Sections were immunostained to detect the anti-apoptotic protein Bcl-xL or the pro-apoptotic enzymes Caspase-3 or -8. B) C) Quantitation of cellular changes (avg. number of stained cells per section). Optic nerve injury causes a marked elevation of Caspases-3 and -8. […] BclxL levels have not been quantified yet, but appear to decrease with optic nerve injury and to be partially preserved by TPEN treatment. gcl: ganglion cell layer; ipl, inner plexiform layer; ink inner nuclear layer.
(§5) Retinal cross-sections from normal mice or 5 days after optic nerve crush, with or without TPEN treatment. Sections were immunostained for the anti-apoptotic protein Bcl-xL or the pro-apoptotic enzymes Caspase-3 or -8. Optic nerve injury causes a marked elevation of Caspases-3 and -8 and a decline in Bcl-xL. TPEN diminishes the expression of Caspases-3 and -8 and attenuates the decline in Bcl-xL gcl: ganglion cell layer; ipl, inner plexiform layer; inl, inner nuclear layer.

Caspase-3 = Caspase-3 immunostaining of retinal cross-sections 5 days after optic nerve crush; assay type: in vivo, mouse
Description: as §4, §5

[3] = test system: free Zn^2+ in the inner plexiform layer of the retina; assay: Free Zn2+ in the retina after optic nerve injury by autometallography (AMG); assay type: in vivo, mouse; conditions: chelator injected intraocularly
Method: A) and B) Mice underwent unilateral optic nerve injury and received i.p. injections of sodium selenite immediately afterwards. Levels of free Zn^2+ increase within 6 hours. C) and D) TPEN (100 μM injections starting 1 day before nerve injury) suppresses the increase in free Zn^2+. The temporal resolution of this method is limited by the time delay for TPEN to reach the retina.
We investigated the hypothesis that the liberation of free Zn2+ plays a role in RGC death after axonal injury.
To investigate the possible relationship between ionic Zn^2+ and nerve regeneration, we used autometallography (AMG) to examine changes in the retina, injecting Na2SeO3 i.p. at various times after ONC and euthanizing mice 6 hr later. We detected a dramatic increase in labeling in the IPL, the layer of the retina that contains synaptic inputs from retinal interneurons onto RGC dendrites, especially in 2 sublayers (FIG. 11B). IPL labeling in-creased up to 24 hr but declined by 3 days, at which time labeling appeared in RGCs themselves. […] This interpretation is supported by studies using a membrane-permeable fluorescent Zn^2+ sensor, Zinpyr1, which has a strong preference for Zn^2+ over Ca^2+ (41). […] As with AMG, Zinpyr1 labeling was elevated in RGCs but not IPL at 3 days (FIG. 11K). The Zn^2+ transporter ZnT3 is also localized in the IPL (FIG. 11L).

Adult rat RGCs = assay: Axon outgrowth in cultured adult RGCs in defined media; assay type: cell-based; conditions: ZX1 10 μM; with or without forskolin, mannose, oncomodulin
[4] = Hydrolytic stability of the sulfonate ester at pH 7; assay type: physicochemical
[5] = test system: porcine liver esterase (PLE); assay: Enzymatic cleavage by esterase followed by UV/vis; assay type: in vitro ADME; conditions: 25% MeOH/PBS at 37° C., 0.2 unit/ml porcine liver esterase
Method: A) change of UV/vis spectrum of 3 in 25% MeOH/PBS upon addition of esterase at 37° C. The final spectrum matched the spectrum of ZX1 (B). A) Insert: the decrease of absorbance at 340 nm.
The AcOTFMB sulfonate ester, 1, was synthesized with 88% yield by esterifying 2-nitrobenzenesulfonyl chloride with the corresponding alcohol in the presence of DABCO as the base. Reduction of the nitro functionality with hydrogen afforded the aniline, 2, with 99% yield. The dipicolylamine (DPA) zinc-binding unit can be installed to the aniline via reduction amination to afford the target molecule, 3, in 10% yield (Scheme 1). […] In 25% MeOH/PBS at 37° C., upon introduction of 0.2 unit/ml porcine liver esterase (PLE), The UV/vis spectrum gradually changes with an isosbestic point of 317 nm, to produce a peak at 307 nm (FIG. 10).

[6] = injected into the eye just after ONC and again after 4 days

O=C(O)CN(CCN(CC(=O)O)CC(=O)O)CC(=O)O.[Ca] [CaEDTA]
effect on RGC survival 2 weeks after ONC [1, 6]: doubled
effect on RGC survival 2 weeks after ONC ([1]; injected into the eye just after ONC and again after 4 days, listed as Ca-EDTA): promotes cell survival
effect on axon regeneration [2]: led to axon outgrowth

CC[N+](CC)(CC)CC [TEA, tetraethylammonium]
RGC survival after optic nerve injury with K+ channel blockers ([1]; FIG. 16): blocks RGC death after ONC to the same extent as TPEN; also recorded: strong effect
concentration affording strong protection of RGCs ([1]; mouse, in vivo): < 100 µM and 100 µM

c1ccc(CN(CCN(Cc2ccccn2)Cc2ccccn2)Cc2ccccn2)nc1 [TPEN, N,N,N′,N′-tetrakis(2-pyridylmethyl)ethylenediamine]
injury-induced decrease in Bcl-xL (Bcl-xL): suppressed; also recorded: partially blocks Bcl-xL loss after ONC
added effect of pre-treatment (additional injection one day before ONC) on RGC survival ([1]; compared with injections on day 0 and day 4 only): not augmented; also recorded: did not enhance RGC survival
effect on RGC survival 2 weeks after ONC [1, 6]: protected RGCs
most effective concentration for RGC survival ([1]; intraocular, day 0 and day 4 after optic nerve crush, survival at 2 weeks): 100 µM
RGC survival in combination with pten gene deletion ([1]; pten deleted in RGCs by AAV2-Cre, 2 weeks): no additional effect
RGC survival when chelator given only on Day 3 [1]: fully protective
long-lasting RGC survival ([1]; up to 12 wk after ONC): enduring protection
injury-induced increase in Caspase-3 (Caspase-3): suppressed; also recorded: diminishes the number of Caspase-3 positive cells
maximally effective concentration for axon regeneration (unit not given) ([2]; in µM): 100-500
added effect of pre-treatment (additional injection one day before ONC) on axon regeneration [2]: markedly increased the number of regenerating axons; also recorded: augmented the amount of regeneration
most effective concentration for axon regeneration [2]: 100 µM
effect on axon regeneration [2]: led to axon outgrowth
axon regeneration in combination with pten gene deletion [2]: much greater effects on regeneration than either one alone; also recorded: double
axon regeneration when injected on D3 ([2]; single administration 3 d after ONC): did not promote regeneration
free Zn2+ level / AMG labeling in the retina after optic nerve injury [3]: diminishes Zn2+ levels; also recorded: blocked injury-induced labeling in the IPL

O=S(=O)(O)c1ccccc1NCCN(Cc1ccccn1)Cc1ccccn1 [ZX1]
axon outgrowth of cultured RGCs (Adult rat RGCs): no effect
dose dependence of RGC survival ([1]; ZX1 between 10 μM and 10 mM): roughly equally effective in promoting cell survival; also recorded: equally protective against RGC death at all concentrations from 10 μM up
effect on RGC survival 2 weeks after ONC [1, 6]: just as effective as TPEN; also recorded: doubled
RGC survival when chelator given only on Day 3 [1]: less effective
GAP-43-positive axons at 0.5 mm from crush site ([2]; 2 weeks after crush, ZX1 10 μM˜10 mM injection, crush alone 7.05±2.49 axons): up to 164 axons
maximally effective concentration for axon regeneration (unit not given) [2]: 30 µM
added effect of pre-treatment (additional injection one day before ONC) on axon regeneration [2]: augmented the amount of regeneration
most effective concentration for axon regeneration [2]: 100 µM
effect on axon regeneration [2]: induces extensive regeneration; also recorded: similarly effective in inducing regeneration
axon regeneration when added to Zymosan + cAMP alone ([2]; long-term, FIG. 18): increases the effect of Zymosan+ cAMP alone
axon regeneration when added to Zymosan, elevation of cAMP and pten gene deletion ([2]; long-term, examined 12 weeks after chelator): nearly doubles the amount of regeneration seen at short distances from the injury site
axon regeneration in combination with pten gene deletion [2]: double
free Zn2+ level / AMG labeling in the retina after optic nerve injury [3]: blocked injury-induced labeling in the IPL

O=C(O)CN(CCN(CC(=O)O)CC(=O)O)CC(=O)O.[Zn] [ZnEDTA]
effect on RGC survival 2 weeks after ONC ([1]; mouse, in vivo): not
effect on axon regeneration [2]: not

CC(=O)Oc1ccc(C(OS(=O)(=O)c2ccccc2NCCN(Cc2ccccn2)Cc2ccccn2)C(F)(F)F)cc1 (stereo not shown) [compound 3, 4-(1-(((2-((2-(bis(pyridin-2-ylmethyl)amino)ethyl)amino)phenyl)sulfonyl)oxy)-2,2,2-trifluoroethyl)phenyl acetate]
stability toward hydrolysis [4]: stable at pH 7 for several days without being hydrolyzed
susceptibility to esterase cleavage [5]: susceptible to enzymatic cleavage to afford ZX1

Agitoxin-2: blocker of Shaker family K+ channels Kv1.1 and 1.3
RGC survival after optic nerve injury with K+ channel blockers ([1]; FIG. 16): only a small effect on RGC survival
RGC survival in combination with TPEN ([1]; FIG. 16): does not augment the effect of TPEN
RGC survival after optic nerve injury with K+ channel blockers ([1]; FIG. 16, listed as AgTx2): slightly improves RGC survival
